# Source: PubChem BioAssay AID1963981 (Molecular Pharmacology Branch, DTP, NCI, 2024)
# pIC50: −log10 of the molar value.
# Test system: 354836-022-R-J1-PDC multicell spheroid viability
# Assay: Anticancer human tumor 354836-022-R-J1-PDC patient-derived head and neck squamous cell carcinoma cell line growth inhibition [PI3K]
# Conditions: for pIC50: curve of first compound; for viability, T/C: stronger effect = lower value
# In short: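 Agents were dosed from a top concentration near clinical Cmax (otherwise 10 microM) in half-log decrements, alone or combined with PI3K inhibitors. The spheroids contain tumor cells plus endothelial (HUVEC) and MSC stroma; viability is measured.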
# [1] = second compound 0.00316 µM, first compound 0.0316 µM
# [2] = second compound 0.00316 µM, first compound 0.1 µM
# [3] = second compound 0.00316 µM, first compound 0.316 µM
# [4] = second compound 0.00316 µM, first compound 1 µM
# [5] = second compound 0.00316 µM, first compound 3.16 µM
# [6] = second compound 0.00316 µM, first compound 10 µM
# [7] = second compound 0.01 µM, first compound 0.0316 µM
# [8] = second compound 0.01 µM, first compound 0.1 µM
# [9] = second compound 0.01 µM, first compound 0.316 µM
# [10] = second compound 0.01 µM, first compound 1 µM
# [11] = second compound 0.01 µM, first compound 3.16 µM
# [12] = second compound 0.01 µM, first compound 10 µM
# [13] = second compound 0.0316 µM, first compound 0.0316 µM
# [14] = second compound 0.0316 µM, first compound 0.1 µM
# [15] = second compound 0.0316 µM, first compound 0.316 µM
# [16] = second compound 0.0316 µM, first compound 1 µM
# [17] = second compound 0.0316 µM, first compound 3.16 µM
# [18] = second compound 0.0316 µM, first compound 10 µM
# [19] = second compound 0.1 µM, first compound 0.0316 µM
# [20] = second compound 0.1 µM, first compound 0.1 µM
# [21] = second compound 0.1 µM, first compound 0.316 µM
# [22] = second compound 0.1 µM, first compound 1 µM
# [23] = second compound 0.1 µM, first compound 3.16 µM
# [24] = second compound 0.1 µM, first compound 10 µM
# [25] = second compound 0.316 µM, first compound 0.0316 µM
# [26] = second compound 0.316 µM, first compound 0.1 µM
# [27] = second compound 0.316 µM, first compound 0.316 µM
# [28] = second compound 0.316 µM, first compound 1 µM
# [29] = second compound 0.316 µM, first compound 3.16 µM
# [30] = second compound 0.316 µM, first compound 10 µM
# [31] = second compound 1 µM, first compound 0.0316 µM
# [32] = second compound 1 µM, first compound 0.1 µM
# [33] = second compound 1 µM, first compound 0.316 µM
# [34] = second compound 1 µM, first compound 1 µM
# [35] = second compound 1 µM, first compound 3.16 µM
# [36] = second compound 1 µM, first compound 10 µM
# 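Further: spheroids exposed to agents for seven days before the viability read.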
smiles,measurement,setting,value
Cn1ncc(Cl)c1-c1cc(C(=O)NC(CN)Cc2cccc(F)c2)sc1Cl (centres undefined) + COc1c(OCCCN2CCOCC2)ccc2c3n(c(=NC(=O)c4cnc(N)nc4)nc12)CCN3,pIC50,second compound 0.00316 µM,6.83
same,pIC50,second compound 0.01 µM,6.66
same,pIC50,second compound 0.0316 µM,6.94
same,pIC50,second compound 0.1 µM,> 7.50
same,pIC50,second compound 0.316 µM,> 7.50
same,pIC50,second compound 1 µM,> 7.50
same,"viability, T/C",[1],78%
same,"viability, T/C",[2],56%
same,"viability, T/C",[3],37.3%
same,"viability, T/C",[4],23.2%
same,"viability, T/C",[5],8.77%
same,"viability, T/C",[6],1.45%
same,"viability, T/C",[7],73%
same,"viability, T/C",[8],74.2%
same,"viability, T/C",[9],37.2%
same,"viability, T/C",[10],19%
same,"viability, T/C",[11],8.38%
same,"viability, T/C",[12],1.92%
same,"viability, T/C",[13],66.7%
same,"viability, T/C",[14],52.8%
same,"viability, T/C",[15],33.1%
same,"viability, T/C",[16],16.1%
same,"viability, T/C",[17],8.7%
same,"viability, T/C",[18],2.85%
same,"viability, T/C",[19],45.2%
same,"viability, T/C",[20],33.6%
same,"viability, T/C",[21],20.1%
same,"viability, T/C",[22],8.6%
same,"viability, T/C",[23],2.88%
same,"viability, T/C",[24],0.98%
same,"viability, T/C",[25],14.4%
same,"viability, T/C",[26],10.3%
same,"viability, T/C",[27],5.2%
same,"viability, T/C",[28],2.69%
same,"viability, T/C",[29],3.48%
same,"viability, T/C",[30],1.06%
same,"viability, T/C",[31],1.56%
same,"viability, T/C",[32],1.83%
same,"viability, T/C",[33],1.63%
same,"viability, T/C",[34],2.2%
same,"viability, T/C",[35],1.8%
same,"viability, T/C",[36],1.4%
Cn1nccc1Nc1nccc(-c2ccn(C(CO)c3ccc(Cl)c(F)c3)c(=O)c2)n1 (centres undefined) + COc1c(OCCCN2CCOCC2)ccc2c3n(c(=NC(=O)c4cnc(N)nc4)nc12)CCN3,pIC50,second compound 0.00316 µM,< 5.00
same,pIC50,second compound 0.01 µM,< 5.00
same,pIC50,second compound 0.0316 µM,< 5.00
same,pIC50,second compound 0.1 µM,7.13
same,pIC50,second compound 0.316 µM,> 7.50
same,pIC50,second compound 1 µM,> 7.50
same,"viability, T/C",[1],97%
same,"viability, T/C",[2],98.1%
same,"viability, T/C",[3],94.2%
same,"viability, T/C",[4],89.3%
same,"viability, T/C",[5],92.1%
same,"viability, T/C",[6],82.7%
same,"viability, T/C",[7],88.5%
same,"viability, T/C",[8],99%
same,"viability, T/C",[9],88%
same,"viability, T/C",[10],94%
same,"viability, T/C",[11],91.9%
same,"viability, T/C",[12],97.6%
same,"viability, T/C",[13],83.4%
same,"viability, T/C",[14],69.7%
same,"viability, T/C",[15],76%
same,"viability, T/C",[16],84.7%
same,"viability, T/C",[17],87.2%
same,"viability, T/C",[18],64.2%
same,"viability, T/C",[19],49.1%
same,"viability, T/C",[20],49.2%
same,"viability, T/C",[21],46.9%
same,"viability, T/C",[22],49.6%
same,"viability, T/C",[23],44.8%
same,"viability, T/C",[24],32.2%
same,"viability, T/C",[25],11.8%
same,"viability, T/C",[26],11.1%
same,"viability, T/C",[27],11.1%
same,"viability, T/C",[28],11.4%
same,"viability, T/C",[29],6.95%
same,"viability, T/C",[30],2.26%
same,"viability, T/C",[31],1.52%
same,"viability, T/C",[32],1.16%
same,"viability, T/C",[33],1.02%
same,"viability, T/C",[34],1.12%
same,"viability, T/C",[35],1.77%
same,"viability, T/C",[36],0.33%
